The record followed here is patent publication US20050282743A1, “Molecular interactions in cells” (Arbor Vita Corporation, priority 2001, published 2005).

Like-named read-outs stand apart in the source and are kept apart here. Peptide text beside a SMILES is read from it. * marks the point of attachment. Biotin = O=C1N[C@H]2[C@H](CS[C@H]2CCCCC(=O)*)N1

Holding throughout (experiment): Apparent affinity (Kd) by titration of PL peptide in the G assay
Holding throughout (format): binding

In assay [1] the target is T1, PDZ-domain polypeptide (GST/PDZ fusion protein) (Homo sapiens, UniProt Q92796).
T1 construct: made in house; host or cells: E. coli (DH5alpha, BL21 or JM109)
T1 sequence (Q92796 1-817): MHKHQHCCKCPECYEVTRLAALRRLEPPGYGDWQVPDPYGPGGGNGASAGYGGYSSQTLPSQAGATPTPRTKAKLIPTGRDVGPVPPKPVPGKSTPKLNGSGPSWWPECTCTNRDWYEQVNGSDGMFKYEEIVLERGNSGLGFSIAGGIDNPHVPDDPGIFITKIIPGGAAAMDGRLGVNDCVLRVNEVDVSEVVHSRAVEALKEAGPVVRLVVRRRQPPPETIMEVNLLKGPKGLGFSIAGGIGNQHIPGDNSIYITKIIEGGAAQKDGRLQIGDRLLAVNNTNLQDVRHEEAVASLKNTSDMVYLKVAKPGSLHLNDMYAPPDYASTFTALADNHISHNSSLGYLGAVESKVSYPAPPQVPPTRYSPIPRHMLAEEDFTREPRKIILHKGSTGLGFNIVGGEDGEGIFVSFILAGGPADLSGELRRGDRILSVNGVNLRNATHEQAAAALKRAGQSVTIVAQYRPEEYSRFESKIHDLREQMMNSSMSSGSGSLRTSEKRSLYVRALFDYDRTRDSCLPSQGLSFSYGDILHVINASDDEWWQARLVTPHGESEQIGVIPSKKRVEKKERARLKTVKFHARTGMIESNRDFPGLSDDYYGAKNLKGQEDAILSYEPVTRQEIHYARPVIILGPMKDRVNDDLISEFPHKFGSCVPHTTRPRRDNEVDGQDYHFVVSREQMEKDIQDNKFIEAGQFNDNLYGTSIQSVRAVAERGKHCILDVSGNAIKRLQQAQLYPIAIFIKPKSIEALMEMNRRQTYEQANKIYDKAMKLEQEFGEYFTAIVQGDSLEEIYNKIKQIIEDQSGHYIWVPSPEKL
The settings on record: PDZ NeDLG. Summed up:
(§1)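 A fixed concentration of GST/PDZ fusion protein, 5 ug/ml by default, was mixed in solution with increasing labeled PL peptide (e.g. 0.1 uM-1 mM). Reaction times ranged from 10 minutes to 2 days at 4-37° C. Complexes were separated from free peptide and detected via the label as in the G assay, apparent affinity coming from the saturating concentration.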

In assay [2] the target is T2, PDZ-domain polypeptide (GST/PDZ fusion protein) (Homo sapiens, UniProt O75970).
T2 construct: made in house; host or cells: E. coli (DH5alpha, BL21 or JM109)
T2 sequence (O75970 whole entry, the tested form may be a part): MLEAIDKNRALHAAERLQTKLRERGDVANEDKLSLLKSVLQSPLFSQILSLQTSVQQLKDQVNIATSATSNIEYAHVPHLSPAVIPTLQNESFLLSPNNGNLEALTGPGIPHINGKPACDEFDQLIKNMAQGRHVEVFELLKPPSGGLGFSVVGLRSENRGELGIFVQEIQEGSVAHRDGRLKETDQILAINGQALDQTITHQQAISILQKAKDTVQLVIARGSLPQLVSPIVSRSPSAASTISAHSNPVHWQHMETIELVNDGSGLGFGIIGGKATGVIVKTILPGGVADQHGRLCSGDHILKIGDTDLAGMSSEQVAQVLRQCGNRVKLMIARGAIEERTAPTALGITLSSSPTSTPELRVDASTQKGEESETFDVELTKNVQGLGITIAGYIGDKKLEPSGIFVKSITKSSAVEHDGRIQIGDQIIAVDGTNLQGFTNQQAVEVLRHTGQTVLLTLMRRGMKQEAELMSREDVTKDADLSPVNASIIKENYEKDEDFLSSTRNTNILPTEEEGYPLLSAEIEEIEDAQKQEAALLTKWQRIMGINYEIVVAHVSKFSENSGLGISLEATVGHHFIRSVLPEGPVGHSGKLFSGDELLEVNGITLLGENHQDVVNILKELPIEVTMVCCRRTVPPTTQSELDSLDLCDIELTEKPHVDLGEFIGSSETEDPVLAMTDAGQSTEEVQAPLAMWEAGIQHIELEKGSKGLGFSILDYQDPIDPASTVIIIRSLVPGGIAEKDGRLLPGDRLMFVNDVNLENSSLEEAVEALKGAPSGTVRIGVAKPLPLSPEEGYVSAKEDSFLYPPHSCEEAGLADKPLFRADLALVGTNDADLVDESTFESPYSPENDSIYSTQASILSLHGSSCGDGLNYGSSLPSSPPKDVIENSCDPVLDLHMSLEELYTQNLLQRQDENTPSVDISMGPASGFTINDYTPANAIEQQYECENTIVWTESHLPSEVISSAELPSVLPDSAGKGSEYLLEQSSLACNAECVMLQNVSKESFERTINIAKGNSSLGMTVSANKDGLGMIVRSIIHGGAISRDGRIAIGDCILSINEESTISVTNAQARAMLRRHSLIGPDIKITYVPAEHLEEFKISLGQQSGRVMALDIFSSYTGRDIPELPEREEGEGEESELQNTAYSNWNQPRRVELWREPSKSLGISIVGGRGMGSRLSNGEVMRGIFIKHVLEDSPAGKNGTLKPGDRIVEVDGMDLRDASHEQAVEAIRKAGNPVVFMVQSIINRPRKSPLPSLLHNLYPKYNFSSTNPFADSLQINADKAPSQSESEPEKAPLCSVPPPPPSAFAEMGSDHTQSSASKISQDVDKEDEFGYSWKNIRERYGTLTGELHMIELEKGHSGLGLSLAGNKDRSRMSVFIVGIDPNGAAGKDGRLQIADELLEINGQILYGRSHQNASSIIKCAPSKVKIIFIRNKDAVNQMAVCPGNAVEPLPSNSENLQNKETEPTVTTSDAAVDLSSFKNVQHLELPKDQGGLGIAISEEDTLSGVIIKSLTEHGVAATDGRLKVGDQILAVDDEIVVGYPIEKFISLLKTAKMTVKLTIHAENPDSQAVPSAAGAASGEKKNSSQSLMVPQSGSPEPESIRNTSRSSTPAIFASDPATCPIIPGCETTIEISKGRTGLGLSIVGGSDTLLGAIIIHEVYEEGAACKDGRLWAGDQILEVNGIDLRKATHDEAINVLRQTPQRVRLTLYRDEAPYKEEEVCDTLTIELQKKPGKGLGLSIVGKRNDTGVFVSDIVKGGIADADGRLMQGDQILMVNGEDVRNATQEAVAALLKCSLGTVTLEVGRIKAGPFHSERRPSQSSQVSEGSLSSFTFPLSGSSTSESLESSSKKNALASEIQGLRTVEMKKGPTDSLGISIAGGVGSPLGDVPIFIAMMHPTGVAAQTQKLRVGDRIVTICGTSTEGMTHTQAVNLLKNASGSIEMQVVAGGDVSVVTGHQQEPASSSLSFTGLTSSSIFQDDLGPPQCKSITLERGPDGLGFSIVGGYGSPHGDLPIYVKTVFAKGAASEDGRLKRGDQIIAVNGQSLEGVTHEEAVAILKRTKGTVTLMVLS
Summed up:
as §1

For assay [3], the target named is T3, PDZ-domain polypeptide (GST/PDZ fusion protein) (Homo sapiens, UniProt Q6P0Q8).
T3 construct: made in house; host or cells: E. coli (DH5alpha, BL21 or JM109)
The note with it: PDZ KIAA0807(S), PDZ Domain 1; Protein Optimal Conc 5; read-out: Peptide Optimal Conc (Kd by titration of the PL peptide). An outline of the steps: as §1

The target in assay [4] is T4, PDZ-domain polypeptide (GST/PDZ fusion protein) (Homo sapiens, UniProt Q86UL8).
T4 construct: made in house; host or cells: E. coli (DH5alpha, BL21 or JM109)
T4 sequence (Q86UL8 whole entry, the tested form may be a part): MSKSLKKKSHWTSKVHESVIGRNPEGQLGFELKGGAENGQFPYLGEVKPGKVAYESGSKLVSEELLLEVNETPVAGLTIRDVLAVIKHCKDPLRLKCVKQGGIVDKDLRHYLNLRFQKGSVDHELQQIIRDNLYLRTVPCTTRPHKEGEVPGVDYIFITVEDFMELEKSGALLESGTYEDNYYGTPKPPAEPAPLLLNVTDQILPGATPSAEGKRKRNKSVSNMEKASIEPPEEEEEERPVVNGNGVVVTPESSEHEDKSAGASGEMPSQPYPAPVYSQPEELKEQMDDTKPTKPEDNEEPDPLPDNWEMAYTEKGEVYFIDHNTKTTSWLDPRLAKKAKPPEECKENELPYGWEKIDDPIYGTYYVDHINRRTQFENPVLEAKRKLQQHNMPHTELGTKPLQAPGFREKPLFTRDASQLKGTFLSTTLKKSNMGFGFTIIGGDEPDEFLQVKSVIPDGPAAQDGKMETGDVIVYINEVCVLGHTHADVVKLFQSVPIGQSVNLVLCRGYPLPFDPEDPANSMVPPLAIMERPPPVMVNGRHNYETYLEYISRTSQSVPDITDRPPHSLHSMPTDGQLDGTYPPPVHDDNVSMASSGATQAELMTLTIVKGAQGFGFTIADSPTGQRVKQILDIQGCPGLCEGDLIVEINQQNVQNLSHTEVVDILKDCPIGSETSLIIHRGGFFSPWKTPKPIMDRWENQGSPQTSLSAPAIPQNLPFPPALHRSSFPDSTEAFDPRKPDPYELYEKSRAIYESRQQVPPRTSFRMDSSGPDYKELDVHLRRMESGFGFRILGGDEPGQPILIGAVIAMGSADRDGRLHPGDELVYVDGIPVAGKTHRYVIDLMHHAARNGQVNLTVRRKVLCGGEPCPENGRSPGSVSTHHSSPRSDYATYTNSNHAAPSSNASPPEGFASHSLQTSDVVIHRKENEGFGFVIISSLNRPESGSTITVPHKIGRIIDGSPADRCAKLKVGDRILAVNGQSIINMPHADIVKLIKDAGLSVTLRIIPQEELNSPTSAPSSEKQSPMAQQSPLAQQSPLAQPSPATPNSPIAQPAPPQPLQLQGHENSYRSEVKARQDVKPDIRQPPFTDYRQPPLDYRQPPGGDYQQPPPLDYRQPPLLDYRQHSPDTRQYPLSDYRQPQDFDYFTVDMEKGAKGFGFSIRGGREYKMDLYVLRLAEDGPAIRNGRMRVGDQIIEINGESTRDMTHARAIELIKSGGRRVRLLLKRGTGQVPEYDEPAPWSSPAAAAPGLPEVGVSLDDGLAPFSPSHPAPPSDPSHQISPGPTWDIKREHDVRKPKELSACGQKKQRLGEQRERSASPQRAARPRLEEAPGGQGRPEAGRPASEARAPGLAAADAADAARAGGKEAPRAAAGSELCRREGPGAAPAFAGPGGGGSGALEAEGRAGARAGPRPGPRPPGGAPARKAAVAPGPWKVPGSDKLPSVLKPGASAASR
The note with it: PDZ atrophin-1 interacting Protein, read-out: Peptide Optimal Conc (Kd by titration of the PL peptide). An outline of the steps: as §1

Assay [5] has as its target T5, PDZ-domain polypeptide (GST/PDZ fusion protein) (Homo sapiens, UniProt Q02410).
T5 construct: made in house; host or cells: E. coli (DH5alpha, BL21 or JM109)
T5 sequence (Q02410 1-837): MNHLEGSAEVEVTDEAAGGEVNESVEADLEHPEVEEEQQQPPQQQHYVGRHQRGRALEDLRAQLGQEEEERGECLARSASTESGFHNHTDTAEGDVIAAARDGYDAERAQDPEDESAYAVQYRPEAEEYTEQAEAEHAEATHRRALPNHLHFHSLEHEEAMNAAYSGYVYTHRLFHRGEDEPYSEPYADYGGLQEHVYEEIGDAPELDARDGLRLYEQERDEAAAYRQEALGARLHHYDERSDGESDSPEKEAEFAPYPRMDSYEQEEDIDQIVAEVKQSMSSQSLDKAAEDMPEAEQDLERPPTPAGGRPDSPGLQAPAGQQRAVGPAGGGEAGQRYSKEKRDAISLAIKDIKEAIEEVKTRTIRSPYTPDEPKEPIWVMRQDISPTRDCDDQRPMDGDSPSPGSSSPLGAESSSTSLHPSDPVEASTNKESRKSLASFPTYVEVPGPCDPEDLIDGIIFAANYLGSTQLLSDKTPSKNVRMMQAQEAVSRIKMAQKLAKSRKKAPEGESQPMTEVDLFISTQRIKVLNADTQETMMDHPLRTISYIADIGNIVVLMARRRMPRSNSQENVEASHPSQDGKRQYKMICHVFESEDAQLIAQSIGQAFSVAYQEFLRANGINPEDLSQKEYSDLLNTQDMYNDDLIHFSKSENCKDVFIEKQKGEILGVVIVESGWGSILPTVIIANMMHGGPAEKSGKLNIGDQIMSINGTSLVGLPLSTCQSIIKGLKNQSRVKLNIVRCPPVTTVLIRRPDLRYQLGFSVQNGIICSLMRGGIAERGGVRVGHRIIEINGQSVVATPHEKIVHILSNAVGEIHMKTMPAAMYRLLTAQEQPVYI
The settings on record: PDZ Mint 1, PDZ Domain 1, 2; titration of the PL peptide; read-out: Peptide Optimal Conc (Kd, dissociation constant). Summed up:
as §1

For `CC(C)C[C@H](NC(=O)[C@H](C)NC(=O)[C@H](CO)NC(=O)CNC(=O)[C@@H](NC(=O)CCCC[C@@H]1SC[C@@H]2NC(=O)N[C@@H]21)[C@@H](C)O)C(=O)N[C@@H](CCC(N)=O)C(=O)N[C@@H](C)C(=O)N[C@@H](Cc1c[nH]c2ccccc12)C(=O)N[C@@H](CCCNC(=N)N)C(=O)N[C@@H](Cc1c[nH]cn1)C(=O)N[C@H](C(=O)N[C@@H](CO)C(=O)N[C@@H](CCCNC(=N)N)C(=O)N[C@@H](CCC(N)=O)C(=O)N[C@@H](C)C(=O)N[C@H](C(=O)N[C@@H](CCC(=O)O)C(=O)N[C@@H](CO)C(=O)N[C@H](C(=O)N[C@H](C(=O)O)C(C)C)[C@@H](C)O)[C@@H](C)O)[C@@H](C)O` [HPV E6 #66 (modified)] (Biotin-TGSALQAWRHTSRQATESTV-OH; C-terminus assumed), the Kd in assay [1] (PDZ Domain 1, 2, read-out: Peptide Optimal Conc (Kd by titration of the PL peptide)) stood at 1000 nM; in assay [1] (PDZ Domain 2, read-out: Peptide Optimal Conc (Kd by titration of the PL peptide)) it was 3500 nM.

Regarding `CC[C@H](C)[C@H](NC(=O)[C@H](CCCCN)NC(=O)[C@@H](NC(=O)[C@H](CO)NC(=O)[C@@H]1CCCN1C(=O)[C@H](Cc1ccccc1)NC(=O)[C@@H](NC(=O)[C@@H](NC(=O)[C@H](CCCNC(=N)N)NC(=O)[C@H](CCC(=O)O)NC(=O)[C@H](CC(C)C)NC(=O)[C@H](CC(C)C)NC(=O)[C@H](CC(C)C)NC(=O)[C@@H](NC(=O)CNC(=O)[C@@H](NC(=O)CCCC[C@@H]1SC[C@@H]2NC(=O)N[C@@H]21)C(C)C)[C@@H](C)O)C(C)C)[C@@H](C)CC)C(C)C)C(=O)N[C@@H](C)C(=O)N[C@H](C(=O)N[C@@H](CC(C)C)C(=O)N[C@H](C(=O)O)C(C)C)[C@@H](C)O` [Adenovirus E4 Type9], the Kd is 100 nM in assay [2] (PDZ MUPP-1, PDZ Domain 11, Protein Optimal Conc 5, read-out: Peptide Optimal Conc (Kd by titration of the PL peptide)); 200 nM in assay [3]; 20 nM in assay [4] (PDZ Domain 1, Protein Optimal Conc 0.5); 100 nM in assay [4] (PDZ Domain 3, Protein Optimal Conc 5); 100 nM in assay [1] (PDZ Domain 2, Protein Optimal Conc 5, read-out: Peptide Optimal Conc (Kd by titration of the PL peptide)).

For the compound `CC[C@H](C)[C@H](NC(=O)[C@H](CO)NC(=O)[C@@H](NC(=O)[C@H](Cc1ccccc1)NC(=O)[C@H](CO)NC(=O)CCCC[C@@H]1SC[C@@H]2NC(=O)N[C@@H]21)[C@@H](C)O)C(=O)N[C@@H](CC(C)C)C(=O)N[C@H](C(=O)N[C@@H](CS)C(=O)N[C@@H](Cc1c[nH]cn1)C(=O)N[C@@H](CCC(N)=O)C(=O)N[C@@H](CCCNC(=N)N)C(=O)N[C@@H](CCCNC(=N)N)C(=O)N[C@H](C(=O)N[C@@H](CCC(N)=O)C(=O)N[C@@H](CCCNC(=N)N)C(=O)N[C@@H](CCCCN)C(=O)N[C@@H](CCC(=O)O)C(=O)N[C@H](C(=O)N[C@H](C(=O)N[C@@H](C)C(=O)O)C(C)C)[C@@H](C)O)[C@@H](C)O)[C@@H](C)O` [GluR5-2 (rat)], in assay [1] (PDZ Domain 1, 2, titration of the PL peptide, read-out: Peptide Optimal Conc (Kd, dissociation constant)), the Kd stood at 100 nM.

Turning to `CC[C@H](C)[C@H](NC(=O)[C@H](Cc1ccc(O)cc1)NC(=O)[C@H](CC(C)C)NC(=O)[C@H](CCC(N)=O)NC(=O)[C@H](Cc1c[nH]cn1)NC(=O)[C@H](CO)NC(=O)[C@H](C)NC(=O)[C@H](CC(C)C)NC(=O)[C@@H](NC(=O)[C@H](CC(=O)O)NC(=O)[C@H](CCSC)NC(=O)[C@H](Cc1ccccc1)NC(=O)[C@@H]1CCCN1C(=O)[C@H](CCCNC(=N)N)NC(=O)[C@@H](NC(=O)[C@H](CC(C)C)NC(=O)[C@H](CC(N)=O)NC(=O)[C@H](CC(=O)O)NC(=O)[C@@H](NC(=O)[C@H](CO)NC(=O)CCCC[C@@H]1SC[C@@H]2NC(=O)N[C@@H]21)[C@@H](C)O)C(C)C)[C@@H](C)O)C(=O)O` [presenilin-2] (Biotin-STDNLVRPFMDTLASHQLYI-OH; C-terminus assumed), the Kd in assay [2] (PDZ MUPP-1, PDZ Domain 7, titration of the PL peptide, read-out: Peptide Optimal Conc (Kd, dissociation constant)) came out at 4000 nM; in assay [5] it was 6000 nM.
